Test: xn = mol fraction of the nth substance listed
Conditions: 101 kPa, Liquid, Capillary tube (Ostwald / Ubbelohde) method

CCCCCCCC(=O)OCC(COC(=O)CCCCCCC)OC(=O)CCCCCCC [1,2,3-propanetriol trioctanoate] + CCCCCCCCCC(=O)O
kinematic viscosity [m2/s]
Conditions	303.15 K	313.15 K	323.15 K	333.15 K	343.15 K	353.15 K	363.15 K
x2 = 0.4763	1.48e-05	1.05e-05	7.89e-06	6.15e-06	5.12e-06	4.13e-06	3.53e-06
x2 = 0.7423	1.29e-05	9.46e-06	7.16e-06	5.66e-06	4.57e-06	3.88e-06	3.18e-06
x2 = 0.8902	8.98e-06	7.83e-06	6.09e-06	4.9e-06	3.99e-06	3.24e-06	2.58e-06

CCCCCCCC/C=C\CCCCCCCC(=O)O [(Z)-9-octadecenoic acid] + CCCCCCCC/C=C\CCCCCCCC(=O)OCC(COC(=O)CCCCCCC/C=C\CCCCCCCC)OC(=O)CCCCCCC/C=C\CCCCCCCC
x1 = 0.758
Conditions	kinematic viscosity [m2/s]
293.15 K	6.78e-05
303.15 K	4.49e-05
313.15 K	3.13e-05
323.15 K	2.28e-05
333.15 K	1.62e-05
343.15 K	1.26e-05
353.15 K	1e-05
363.15 K	8.22e-06

CCCCCCCC/C=C\CCCCCCCC(=O)O [(Z)-9-octadecenoic acid] + CCCCCCCCCC(=O)O
kinematic viscosity [m2/s]
Conditions	303.15 K	313.15 K	323.15 K	333.15 K	343.15 K	353.15 K	363.15 K
x2 = 0.3533	1.99e-05	1.45e-05	1.09e-05	8.52e-06	6.83e-06	5.63e-06	4.69e-06
x2 = 0.6211	1.45e-05	1.08e-05	8.25e-06	6.39e-06	5.17e-06	4.27e-06	3.36e-06

CCCCC/C=C\C/C=C\CCCCCCCC(=O)O [(Z,Z)-9,12-octadecadienoic acid] + CCCCCCCC/C=C\CCCCCCCC(=O)OCC(COC(=O)CCCCCCC/C=C\CCCCCCCC)OC(=O)CCCCCCC/C=C\CCCCCCCC
x1 = 0.7576
Conditions	kinematic viscosity [m2/s]
303.15 K	2.96e-05
313.15 K	2.13e-05
323.15 K	1.59e-05
333.15 K	1.23e-05
343.15 K	9.76e-06
353.15 K	7.91e-06
363.15 K	6.52e-06

CCCCC/C=C\C/C=C\CCCCCCCC(=O)OCC(COC(=O)CCCCCCC/C=C\C/C=C\CCCCC)OC(=O)CCCCCCC/C=C\C/C=C\CCCCC [trilinolein] + CCCCC/C=C\C/C=C\CCCCCCCC(=O)O
x2 = 0.7536
Conditions	kinematic viscosity [m2/s]
303.15 K	2.55e-05
313.15 K	1.85e-05
323.15 K	1.31e-05
333.15 K	9.96e-06
343.15 K	7.98e-06
353.15 K	6.83e-06
363.15 K	5.69e-06

CCCCC/C=C\C/C=C\CCCCCCCC(=O)OCC(COC(=O)CCCCCCC/C=C\C/C=C\CCCCC)OC(=O)CCCCCCC/C=C\C/C=C\CCCCC [trilinolein] + CCCCCCCC/C=C\CCCCCCCC(=O)O
x2 = 0.7564
Conditions	kinematic viscosity [m2/s]
293.15 K	4.14e-05
303.15 K	2.82e-05
313.15 K	2.07e-05
323.15 K	1.48e-05
333.15 K	1.15e-05
343.15 K	9.32e-06
353.15 K	7.62e-06
363.15 K	6.38e-06

— the NIST ThermoML archive (doi:10.1021/je700293s)
